Legend:
[1] = system: 64SP stem like cells; details: combined with radiation; cited from earlier work
[2] = system: O^6-methylguanine-DNA-methyltransferase (MGMT) expression; details: combined with temozolomide (TMZ); cited from earlier work
[3] = Clinical adverse events observed with troriluzole; details: human, in vivo
Description: In general, mild liver enzymes elevations attributed to troriluzole occur due to enzyme induction and are likely to resolve spontaneously within 12 weeks without any changes in the dose of troriluzole. However, the investigator should evaluate the subject, as appropriate.

[4] = system: glioma; details: cited from earlier work

SMILES | sensitivity to radiation [1] | effects of TMZ [2] | most commonly observed adverse events [3] | concentration of CD4+ T cells in TME ([4]; IF data, after troriluzole treatment) | proliferation of tumor-infiltrating T cells ([4]; troriluzole treatment) | survival ([4]; troriluzole treatment) | survival and T regulatory cells in combination with anti-PD-1 ([4]; with anti-PD-1 immunotherapy, glioma tumor microenvironment (TME))
Nc1nc2ccc(OC(F)(F)F)cc2s1 [Riluzole, riluzole] | enhances sensitivity to radiation | enhances the effects of TMZ via suppression of O^6-methylguanine-DNA-methyltransferase (MGMT) expression |  |  |  |  | 
CN(CC(=O)Nc1nc2ccc(OC(F)(F)F)cc2s1)C(=O)CNC(=O)CN [Troriluzole, troriluzole] |  |  | Mild increases in liver enzymes | increased concentration of CD4+ T cells in TME | promoted proliferation of tumor-infiltrating T cells | induced a survival benefit | synergized with anti-PD-1 immunotherapy to further improve survival and reduce T regulatory cells
